Experimental data published in patent US20160289594A1, “USE OF CNGA2 AGONISTS FOR ENHANCING THE OLFACTORY EFFECT OF AN ODORANT” (Henkel AG & Co. KGaA, priority 2013, published 2016).

Test system: CNGA2 ion channel
Assay: Experiments with skatole on direct activation of the CNGA2 ion channel
Assay type: cell-based, human
Details: CNGA2 ion channel of all odor receptor cells, in addition to specific odor receptors

Cc1c[nH]c2ccccc12 [skatole, 3-methylindole]
Activation of the CNGA2 ion channel: directly activates
